Results on three molecules are retold here after patent US7863281B2, “Bicyclic heterocycles, pharmaceutical compositions containing these compounds, their use and processes for the preparation thereof” (Boehringer Ingelheim Pharma GmbH & Co. KG, priority 2002, dated 2011).

SMILES strings stand for the structures.

In this assay the target is T1, human EGF-receptor kinase (Homo sapiens, UniProt P00533).
T1 construct: GST; made in house; host or cells: Sf9 insect cells (Baculovirus expression system)
As to the kind of experiment: Inhibition of human EGF-receptor kinase (ELISA, pEY substrate). The assay is classed as biochemical. Particulars: cytoplasmic tyrosine kinase domain (Met664-Ala1186) as GST fusion protein; poly(EY)/bio-pEY substrate; 30 minutes at ambient temperature. As for the experimental part:
The inhibition of human EGF-receptor kinase was determined using the cytoplasmic tyrosine kinase domain (methionine 664 to alanine 1186 based on the sequence published in Nature 309 (1984), 418). For this the protein was expressed in Sf9 insect cells as GST fusion protein using the Baculovirus expression system.
The enzyme activity was measured in the presence or absence of the test compounds in serial dilutions. The polymer pEY (4:1) obtained from SIGMA was used as the substrate. Biotinylated pEY (bio-pEY) was added as the tracer substrate. 100 μl of reaction solution contained 10 μl of the inhibitor in 50% DMSO, 20 μl of the substrate solution (200 mM HEPES pH 7.4, 50 mM magnesium acetate, 2.5 mg/ml poly(EY), 5 μg/ml bio-pEY) and 20 μl of enzyme preparation. The enzyme reaction was started by the addition of 50 μl of a 100 μM ATP solution in 10 mM of magnesium chloride. The dilution of the enzyme preparation was adjusted so that the incorporation of phosphate in the bio-pEY was linear in terms of time and quantity of enzyme. The enzyme preparation was diluted in 20 mM HEPES pH 7.4, 1 mM EDTA, 130 mM common salt, 0.05% Triton X-100, 1 mM DTT and 10% glycerol.
The enzyme assays were carried out at ambient temperature over a period of 30 minutes and ended by the addition of 50 μl of a stopping solution (250 mM EDTA in 20 mM HEPES pH 7.4). 100 μl were placed on a streptavidin-coated microtitre plate and incubated for 60 minutes at ambient temperature. Then the plate was washed with 200 μl of a wash solution (50 mM Tris, 0.05% Tween 20). After the addition of 100 μl of an HRPO-labelled anti-PY antibody (PY20H Anti-PTyr:HRP made by Transduction Laboratories, 250 ng/ml) the preparation was incubated for 60 minutes. Then the microtitre plate was washed three times with 200 μl of wash solution. The samples were then combined with 100 μl of a TMB-peroxidase solution (A:B=1:1, Kirkegaard Perry Laboratories). After 10 minutes the reaction was stopped. The extinction was measured at OD450nm with an ELISA reader. All the results were measured three times. […]
On the technique in general: In an ELISA, binding on a coated surface is turned into a signal by an enzyme label.

T1 sequence (P00533 688-1210): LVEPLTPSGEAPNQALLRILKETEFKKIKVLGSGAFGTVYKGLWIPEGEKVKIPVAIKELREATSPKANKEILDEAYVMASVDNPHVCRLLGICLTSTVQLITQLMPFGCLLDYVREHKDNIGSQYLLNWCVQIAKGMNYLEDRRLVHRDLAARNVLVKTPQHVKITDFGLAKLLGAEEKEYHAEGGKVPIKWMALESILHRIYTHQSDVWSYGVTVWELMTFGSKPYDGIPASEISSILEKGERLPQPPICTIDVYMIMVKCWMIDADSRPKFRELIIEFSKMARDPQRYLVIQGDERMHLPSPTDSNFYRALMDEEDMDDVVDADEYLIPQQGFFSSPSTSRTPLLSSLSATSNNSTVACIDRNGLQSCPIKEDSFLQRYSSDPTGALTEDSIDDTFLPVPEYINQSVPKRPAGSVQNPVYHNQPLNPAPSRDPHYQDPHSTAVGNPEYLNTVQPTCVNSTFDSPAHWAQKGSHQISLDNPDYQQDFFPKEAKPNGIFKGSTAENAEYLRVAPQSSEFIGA

For the molecule `O=C(/C=C/CN1C[C@@H]2C[C@H]1CO2)Nc1cc2c(Nc3ccc(F)c(Cl)c3)ncnc2cc1OCC1CC1` [Example 1, 4-[(3-chloro-4-fluoro-phenyl)amino]-6-{[4-((1S,4S)-2-oxa-5-aza-bicyclo[2.2.1]hept-5-yl)-1-oxo-2-buten-1-yl]amino}-7-cyclopropylmethoxy-quinazoline], the IC50 came to 1.5 nM.

The molecule `O=C(/C=C/CN1C[C@H]2C[C@@H]1CO2)Nc1cc2c(Nc3ccc(F)c(Cl)c3)ncnc2cc1O[C@H]1CCOC1` [Example 2(2), 4-[(3-chloro-4-fluoro-phenyl)amino]-6-{[4-((1R,4R)-2-oxa-5-aza-bicyclo[2.2.1]hept-5-yl)-1-oxo-2-buten-1-yl]amino}-7-[(S)-(tetrahydrofuran-3-yl)oxy]-quinazoline] showed an IC50 of 0.5 nM.

Regarding `O=C(/C=C/CN1CC2CCC(C1)O2)Nc1cc2c(Nc3ccc(F)c(Cl)c3)ncnc2cc1O[C@H]1CCOC1` [Example 2(3), 4-[(3-chloro-4-fluoro-phenyl)amino]-6-{[4-(8-oxa-3-aza-bicyclo[3.2.1]oct-3-yl)-1-oxo-2-buten-1-yl]amino}-7-[(S)-(tetrahydrofuran-3-yl)oxy]-quinazoline], the IC50 came to 2 nM.

Broadly, the IC50 is the midpoint of a concentration-inhibition curve.
